The record followed here is patent US20230057984A1, “NORMALIZATION OF CULTURE OF CORNEAL ENDOTHELIAL CELLS” (KYOTO PREFECTURAL PUBLIC UNIVERSITY CORPORATION, priority 2011, published 2023).

In the test the test system is Human corneal endothelial cells. Put plainly: Immunostaining and Western blot of Na+/K+-ATPase and ZO-1 in human corneal endothelial cells with SB431542 (FIG. 9A A, B). It is filed as cell-based. The settings on record: HCEC. On the procedure: For tissue staining examination, cultured MCECs or HCECs were put into Lab-Tek™ Chamber Slides™ (NUNC A/S, Roskilde, Denmark), fixed with 4% formaldehyde for 10 minutes at a room temperature (RT), and incubated for 30 minutes with 1% bovine serum albumin (BSA). Specifically, cultured MCECs or HCECs on the Lab-Tek™ Chamber Slides™ (NUNCA/S, Roskilde, Denmark) were fixed at a room temperature for 10 minutes in 4% formaldehyde, followed by incubation for 30 minutes together with 1% bovine serum albumin (BSA). In order to examine the phenotype of CEC, immunohistochemical analysis was directed to a protein associated with tight junction, ZO-1 (Zymed Laboratories, Inc., South San Francisco, Calif.), a protein associated with the pumping function, Na^+/K^+-ATPase (Upstate Biotec, Inc., Lake Placid, N.Y.), fibronectin (BD, Franklin Lakes, N.J.), and actine. As markers associated with the function of CEC, ZO-1 and Na^+/K^+-ATPase were used; fibronectin and type 1 collagen were used to evaluate the change in a fibroblastic manner; and staining of actine was used to evaluate the phenotype of the cells. Staining of ZO-1, Na^+/K^+-ATPase, type 1 collagen and fibronectin was each performed using 1:200 dilution of ZO-1 polyclonal antibody, Na^+/K^+-ATPase monoclonal antibody, and fibronectin monoclonal antibody. As to secondary antibody, 1:2000 dilution of Alexa Fluor (registered trademark) 488 label or Alexa Fluor (registered trademark) 594 label goat antimouse IgG (Life Technologies) was used. Staining of actine was performed using 1:400 dilution of Alexa Fluor (registered trademark) 488 label phalloidin (Life Technologies). […] Next, the slides were observed through a fluorescence microscope (TCS SP2 AOBS; Leica Microsystems, Welzlar, Germany).
Next, reaction was allowed for 1 hour at a room temperature with ALEXA FLUOR 488 (INVITROGEN (catalog number: A21206)) and ALEXA FLUOR 594 (INVITROGEN (catalog number: A21203)), diluted with TBS-T by 1,000 fold. […] After washing, bands were detected using an ECL-ADVAVCE Western Blotting Detection Kit (GE healthcare Japan (catalog number: RPN2135V)). […]
In general terms: In western blotting, separated proteins are transferred to a membrane and probed.

SMILES strings stand for the structures.

Take `NC(=O)c1ccc(-c2nc(-c3ccc4c(c3)OCO4)c(-c3ccccn3)[nH]2)cc1` [SB431542]: the “expression of Na+/K+-ATPase and ZO-1 (immunostaining)” value (1 μM SB431542, in normal culture medium only a subpopulation of cells) is on record as “expression was recognized in all the cells”. The “intracellular localization of Na+/K+-ATPase and ZO-1” value (SB431542) is “allows for the intracellular localization of Na^+/K^+-ATPase and ZO-1 in a cell membrane”. Under “SB431542 0.1 μM, 1 μM, 10 μM”, the “protein expression of Na+/K+-ATPase and ZO-1 (Western blot)” value is reported as “makes it possible to maintain the protein expression thereof”.
